The assay deals with mouse melanoma cells B16-F10. Description: Relative melanin content of B16-F10 cells after 24 h stimulation with α-MSH (Example 1). Conditions: absorbance at 405 nm relative to blank group, three replicate values. The assay is classed as cell-based. The procedure: The results in the examples of the present disclosure are all expressed in terms of a relative melanin content: the relative melanin content=absorbance of the experimental group/absorbance of the blank group×100%.
• (1) A cell suspension of B16-F10 cells in a logarithmic growth phase was inoculated into 6-well plates in a cell density of 2×10^5 cells/mL, with an amount being 2 mL in each well, and then added into a 5% carbon dioxide incubator and cultured at a temperature of 37° C. for 24 h. • (2) A medium contained in the 6-well plates was removed, the B16-F10 cells were washed with 2 mL of the PBS, 2 mL of substances from each of the following groups each were added into each well of the 6-well plates, and then cultured in the 5% carbon dioxide incubator at a temperature of 37° C. for 24 h.
Blank group: 2 mL of a basal DMEM was added into each well.
Model group: 2 mL of a-MSH solutions with different concentrations (0.5 μM, 1 μM, 2.5 μM, 5 μM, and 10 μM) were separately added into each well. • (3) Determination of a relative melanin content: the basal DMEM in the 6-well plates was removed by using a sterile pipette, the B16-F10 cells were washed with 2 mL of the PBS, and digested with 400 μL of trypsin; then the digesting was terminated with 1 mL of a complete DMEM; the B16-F10 cells were collected into centrifuge tubes, and centrifuged at 2,500 rpm for 10 min; a resulting supernatant after centrifugation was discarded, the resulting B16-F10 cells were centrifuged with 1,000 μL of the PBS for a second time, 500 μL of a 1 mol/L NaOH solution (containing 10% of DMSO) was added into each of the centrifuge tubes, and subjected to water bath at a temperature of 80° C. for 1 h to obtain a product; 200 μL of the product was transferred into a 96-well plate, an absorbance at 405 nm was determined and calculated to obtain the relative melanin content.

Where “and” joins values, the source holds several entries; their conditions need not be identical. Equal entries are not always repeated.

Consider “α-melanocyte-stimulating hormone [α-MSH]”, for which the Relative melanin content was 102.51% and 111.76% and 97.21% (α-MSH 0.5 μM); 104.65% and 100.54% and 103.16% (α-MSH 1.0 μM); 98.75% and 98.22% and 102.18% (α-MSH 2.5 μM); 96.79% and 97.45% and 95.71% (α-MSH 5.0 μM); 111.71% and 108.05% and 112.79% (α-MSH 10 μM).

These data come from patent US20240272142A1, “METHOD FOR DETERMINING WHITENING EFFICACY OF COSMETIC RAW MATERIAL AND USE THEREOF” (SHENZHEN INSTITUTE FOR DRUG CONTROL (SHENZHEN TESTING …, priority 2023, published 2024).
